{
  "source": "PubChem BioAssay (NCI)",
  "assay_in_all_cases": "growth of human tumour cells (NCI), 384-well format",
  "key": {"TK-10 renal": {"tested_on": "TK-10 renal"}, "NCI-H522 lung": {"tested_on": "NCI-H522 lung"}, "BT-549 breast": {"tested_on": "BT-549 breast"}, "SNB-19 CNS": {"tested_on": "SNB-19 CNS"}, "SF-539 CNS": {"tested_on": "SF-539 CNS"}, "SNB-75 CNS": {"tested_on": "SNB-75 CNS"}, "NCI-H226 lung": {"tested_on": "NCI-H226 lung"}, "SK-MEL-28 melanoma": {"tested_on": "SK-MEL-28 melanoma"}, "NCI-H460 NSCLC": {"tested_on": "NCI-H460 NSCLC"}, "RPMI-8226 leukemia": {"tested_on": "RPMI-8226 leukemia"}, "SN12C renal": {"tested_on": "SN12C renal"}, "OVCAR-8 ovarian": {"tested_on": "OVCAR-8 ovarian"}, "COLO 205 colon": {"tested_on": "COLO 205 colon"}},
  "note": "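GI50 is the concentration that inhibits growth by half. The concentration for full growth arrest is given as TGI.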",
  "data": [
    {"smiles": "O=C1Nc2ccc(I)cc2/C1=C/c1cc(Br)c(O)c(Br)c1", "values": [
      {"measurement": "GI50", "setting": "TK-10 renal", "value": 21.6, "unit": "µM"},
      {"measurement": "TGI", "setting": "TK-10 renal", "value": 78.1, "unit": "µM"},
      {"measurement": "GI50", "setting": "NCI-H522 lung", "value": 13.2, "unit": "µM"},
      {"measurement": "TGI", "setting": "NCI-H522 lung", "value": 26.1, "unit": "µM"},
      {"measurement": "GI50", "setting": "BT-549 breast", "value": 11.7, "unit": "µM"},
      {"measurement": "TGI", "setting": "BT-549 breast", "value": 26.8, "unit": "µM"},
      {"measurement": "GI50", "setting": "SNB-19 CNS", "value": 21.4, "unit": "µM"},
      {"measurement": "TGI", "setting": "SNB-19 CNS", "value": 56.3, "unit": "µM"},
      {"measurement": "GI50", "setting": "SF-539 CNS", "value": 15.4, "unit": "µM"},
      {"measurement": "TGI", "setting": "SF-539 CNS", "value": 30.1, "unit": "µM"},
      {"measurement": "GI50", "setting": "SNB-75 CNS", "value": 25.7, "unit": "µM"},
      {"measurement": "TGI", "setting": "SNB-75 CNS", "value": 51.8, "unit": "µM"},
      {"measurement": "GI50", "setting": "NCI-H226 lung", "value": 27.2, "unit": "µM"},
      {"measurement": "TGI", "setting": "NCI-H226 lung", "value": 68.5, "unit": "µM"},
      {"measurement": "GI50", "setting": "SK-MEL-28 melanoma", "value": 6.3, "unit": "µM"},
      {"measurement": "TGI", "setting": "SK-MEL-28 melanoma", "value": 34.8, "unit": "µM"},
      {"measurement": "GI50", "setting": "NCI-H460 NSCLC", "value": 14.9, "unit": "µM"},
      {"measurement": "TGI", "setting": "NCI-H460 NSCLC", "value": 28.6, "unit": "µM"},
      {"measurement": "GI50", "setting": "RPMI-8226 leukemia", "value": 6.64, "unit": "µM"},
      {"measurement": "TGI", "setting": "RPMI-8226 leukemia", "value": 19.2, "unit": "µM"},
      {"measurement": "GI50", "setting": "SN12C renal", "value": 21.6, "unit": "µM"},
      {"measurement": "TGI", "setting": "SN12C renal", "value": 48.5, "unit": "µM"},
      {"measurement": "GI50", "setting": "OVCAR-8 ovarian", "value": 17.2, "unit": "µM"},
      {"measurement": "TGI", "setting": "OVCAR-8 ovarian", "value": 37.4, "unit": "µM"},
      {"measurement": "GI50", "setting": "COLO 205 colon", "value": 10.2, "unit": "µM"},
      {"measurement": "TGI", "setting": "COLO 205 colon", "value": 23.5, "unit": "µM"}
    ]}
  ]
}
